The ED50 is the midpoint of the dose-response relation. Higher therefore signals a need for a large dose.

SMILES strings stand for the structures.

Holding throughout (format): functional
The test system of assay [1] is Mus musculus. As to the kind of experiment: Analgesic activity by writhing test in mice after intraveneous administration. The settings on record: iv. On the technique in general: An intraperitoneal irritant provokes the stretching counted in writhing tests.
The subject of assay [2] is Mus musculus. The experiment in a line: Analgesic activity by writhing test in mice after peroral administration. The note with it: po.
Assay [3] has as its system Mus musculus. The experiment in a line: Analgesic activity by writhing test in mice after subcutaneous administration. The note with it: sc.

In the case of `CN(C)CCO[C@@H](c1ccccc1)c1ccnn1C`, the ED50 turned out to be 28 mg/kg in the assay with Mus musculus [1], 67 mg/kg in the assay with Mus musculus [2] and 127 mg/kg in the assay with Mus musculus [3].

As to `CN(C)CCO[C@H](c1ccccc1)c1ccnn1C`, the ED50 in the assay on Mus musculus [1] worked out at 13 mg/kg; in the assay on Mus musculus [2] it was 37 mg/kg; in the assay on Mus musculus [3], 21 mg/kg.

`CN(C)CCOC(c1ccccc1)c1ccnn1C` (racemic) [CIZOLIRTINE]: the results for the 50% effective dose (ED50) in the assay with Mus musculus [1], in the assay with Mus musculus [2] and in the assay with Mus musculus [3] were 16 mg/kg, 56 mg/kg and 70 mg/kg, respectively.

In the assay with Mus musculus [2], `O=C([O-])Cc1ccccc1Nc1c(Cl)cccc1Cl.[Na+]` [DICLOFENAC SODIUM] yielded an ED50 of 87 mg/kg.
